In ChEMBL document CHEMBL3045337, “A Comparative Study: Evaluation of Antioxidant Activity of Melatonin and Some Indole Derivatives” (Med Chem Res, 2005):

How the values were obtained:
[1] = Antioxidant activity assessed as superoxide radical scavenging activity at 10 '-3 M measured for 3 min by spectrophotometry relative to control; format: functional
[2] = Antioxidant activity assessed as superoxide radical scavenging activity at 10 '-4 M measured for 3 min by spectrophotometry relative to control; format: functional
Liver [3] = assay: Antioxidant activity in Rattus norvegicus (rat) liver homogenate assessed as inhibition of lipid peroxidation measuring TBARS production at 10 '-3 M after 1 hr by spectrophotometry relative to control; format: functional, tissue-based
Liver [4] = assay: Antioxidant activity in Rattus norvegicus (rat) liver homogenate assessed as inhibition of lipid peroxidation measuring TBARS production at 10 '-4 M after 1 hr by spectrophotometry relative to control; format: functional, tissue-based

CCCNC(=O)CCc1c[nH]c2ccccc12
Activity [1]: 94%
Superoxide level, % of control [2]: 100%
inhibition (Liver [3]): 28%
TBARS production (% of control) (Liver [4]): 102%

CCCCCNC(=O)CCc1c[nH]c2ccccc12
Activity [1]: 87%
Superoxide level, % of control [2]: 103%
inhibition (Liver [3]): 25%
TBARS production (% of control) (Liver [4]): 94%

COc1ccc2[nH]cc(CCNC(C)=O)c2c1
Activity [1]: 84%
Superoxide level, % of control [2]: 90%
inhibition (Liver [3]): 28%
TBARS production (% of control) (Liver [4]): 93%

Cc1c(C)c2c(c(C)c1O)CC[C@@](C)(CCC[C@H](C)CCC[C@H](C)CCCC(C)C)O2
Activity [1]: 14%
Superoxide level, % of control [2]: 83%
inhibition (Liver [3]): 27%
TBARS production (% of control) (Liver [4]): 46%

COC(=O)CCc1c[nH]c2ccccc12
Activity [1]: 70%
Superoxide level, % of control [2]: 54%
inhibition (Liver [3]): 56%
TBARS production (% of control) (Liver [4]): 114%

CCCCNC(=O)CCc1c[nH]c2ccccc12
Activity [1]: 85%
Superoxide level, % of control [2]: 104%
inhibition (Liver [3]): 28%
TBARS production (% of control) (Liver [4]): 100%

CN(C)CCCNC(=O)CCc1c[nH]c2ccccc12
Activity [1]: 98%
Superoxide level, % of control [2]: 98%
inhibition (Liver [3]): 27%
TBARS production (% of control) (Liver [4]): 102%

CCN(CC)CCCNC(=O)CCc1c[nH]c2ccccc12
Activity [1]: 90%
Superoxide level, % of control [2]: 108%
inhibition (Liver [3]): 31%
TBARS production (% of control) (Liver [4]): 96%

CCN(CC)CCNC(=O)CCc1c[nH]c2ccccc12
Activity [1]: 91%
Superoxide level, % of control [2]: 102%
inhibition (Liver [3]): 26%
TBARS production (% of control) (Liver [4]): 51%

CN(C)CCNC(=O)CCc1c[nH]c2ccccc12
Activity [1]: 83%
Superoxide level, % of control [2]: 94%
inhibition (Liver [3]): 28%
TBARS production (% of control) (Liver [4]): 101%
